{
  "source": "patent US20200003756A1",
  "about": "“METHOD FOR OBSERVING SEBACEOUS GLAND” (MANDOM CORPORATION, priority 2017, published 2020)",
  "tested_on": "sebaceous-gland-structure A",
  "assay": "Degree of sebum production from three-dimensional image analysis of outermost layer (Example 4)",
  "type": "cell-based",
  "details": "linoleic acid 1×10^−4 M, 24 hours",
  "method": "Linoleic acid and phytic acid as test substances were added to the mixed medium obtained in Preparation Example 1 (test sample A) so that the concentration of linoleic acid was 1×10^−4M and so that the concentration of the test sample was 100 μM, to obtain a test sample E. One milliliter of the test sample A was added to each well of a 24-well plate. Text, the sebaceous-gland-structure A obtained in Preparation Example 6 was cultured in a suspended state in the test sample A contained in each well of the 24-well plate in the presence of 5% by volume carbon dioxide at 37° C. for 24 hours, to contact the sebaceous-gland-structure A with the test sample A (Experiment number 10). In addition, the sebaceous-gland-structure A was contacted with the test sample B (Experiment number 11) or the test sample E (Experiment number 12) in the same manner as in Experiment, number 10 except that in Experiment number 10, the test sample B obtained in Example 1(1) (Experiment number 11) or the test sample E obtained in Example 4(1) (Experiment number 12) was used in place of the test sample A. Each of observation samples of Experiment numbers 10 to 12 was obtained in the same manner as in Preparation Example 7 except that in Preparation Example 7, the cultured sebaceous-gland-structure A obtained in Example 4(2) (Experiment numbers 10 to 12) was used in place of the cultured sebaceous-gland-structure A obtained in Preparation Example 6. The appearance of the sebaceous-gland-structure A contained in the observation sample of each of Experiment numbers 10 to 12 obtained in Example 4(3) was observed under a confocal microscope by using image analysis software (manufactured b Bitplane AG, trade name: Imaris), thereby giving three-dimensional image of the sebaceous-gland-structure A. Next, information of the outermost layer of the sebaceous-gland-structure A was extracted from the data of the resulting three-dimensional image by using image analysis software (manufactured by Bitplane AG, trade name: Imaris). Thereafter, the whole volume of the cells present in the outermost layer was calculated from the extracted information, and thereafter the sebum droplets contained in the outermost layer were counted. Using the whole volume of the cells present in the outermost layer and the number of lipid droplets of the sebum the degree of sebum production was calculated according to Formula (I): [Degree of Sebum production]=[Number of lipid droplets of sebum]/[Whole volume of cells present in outermost layer] (I)",
  "data": [
    {"molecule": "CCCCC/C=C\\C/C=C\\CCCCCCCC(=O)O", "note": "[linoleic acid, Linoleic acid]", "values": [
      {"measurement": "sebum production-regulating action", "setting": "conclusion from FIG. 11", "result": "sebum production-promoting action"},
      {"measurement": "degree of sebum production (number of lipid droplets of sebum / whole volume of cells present in outermost layer)", "setting": "test sample B, compared with test sample A not containing linoleic acid, FIG. 11", "result": "higher"}
    ]}
  ]
}
